Like-named read-outs stand apart in the source and are kept apart here.
Test system: human whole blood
Format: cell-based
Source text: One or more samples of human whole blood were collected by a licensed medical doctor from a healthy volunteer known to refrain from the taking of anticoagulant medications such as, for example, aspirin. Written informed consent of the donors was collected under an approved protocol from the Internal Review Board at the UT Health Science Center. Human whole blood was collected, by antecubital venipuncture, into vials 12 containing the anticoagulant sodium citrate (3.8%, applied at a 9:1 blood to citrate ratio).
Embodiments of the apparatus 10 of the present invention may also be used to characterize clot contraction. […] The test volume was 27 μL; however, to ensure filling of the test chamber and complete immersion within the blood sample 50 of the wetted portion 24/plate 15 of the probe 20 disposed within the vial 15, a volume of 250 μL of blood was injected into a vial 15 comprising glass. Data recording began once the wetted portion 24/plate 15 was lowered into position such that it was immersed within the blood sample 50 and was 1 mm away from the lower member 50, both of which comprised acrylic. Deflection of the wire portion 21 of the probe 20 typically began after 360 to 480 seconds, and data collection was concluded after 3,600 seconds (1 hour).

SMILES	contraction force (1 mMol in human whole blood, FIG. 41)	contraction force (60 mMol in human whole blood, FIG. 41)	contraction force (increasing concentrations in human whole blood)
c1nnn[nH]1 [tetrazole]	enhanced contraction force	reduced contraction force	
C=C1[C@@H](C)[C@H]2[C@H](Cc3ccccc3)NC(=O)[C@]23[C@H](OC(C)=O)/C=C/[C@@](C)(O)C(=O)[C@@H](C)C/C=C/[C@H]3[C@@H]1O [cytochalasin D]			dose-dependent decrease

Source: patent publication US12339274B2, “Blood coagulometer and method” (priority 2016, dated 2025)
